Laboratory results: patent US20240108740A1, “THERAPEUTIC COMPOSITIONS INCLUDING SPN10 AND USES THEREOF” (Stealth BioTherapeutics Inc., priority 2022, published 2024)
Residues, ends and D or L forms follow the SMILES beside them.

Legend:
[1] = tested on: CD36; test: Example 4: CD36 mRNA in post-ischemic brain (real time PCR); assay type: in vivo, mouse; conditions: treatment at 0 and 6 hours after 30 minute ischemia
Experimental: Wild-type mice will be given saline vehicle (Veh, i.p., n=6), peptide conjugates (5 mg/kg, i.p., n=6), aromatic-cationic peptides (e.g., an equivalent molar dose of aromatic-cationic peptide based on the concentration of the aromatic-cationic peptide administered in the peptide conjugate treatment group), SPN10(s) (e.g., an equivalent molar dose of SPN10 based on the concentration of SPN10 administered in the peptide conjugate treatment group), or SPN10(s) in combination with aromatic-cationic peptides (e.g., an equivalent molar dose of SPN10 based on the concentration of SPN10 administered in the peptide conjugate treatment group and an equivalent molar dose of aromatic-cationic peptide based on the concentration of aromatic-cationic peptide administered in the peptide conjugate treatment group) at 0 and 6 hours after a 30 minute period of ischemia. Levels of CD36 mRNA in post-ischemic brain will be determined using real time PCR.

[2] = tested on: Sprague-Dawley rats; test: Example 41: contrast-induced nephropathy in glycerol-induced rhabdomyolysis; assay type: in vivo, rat; conditions: 25% glycerin + diatrizoate
Experimental: Animal model: This Example will utilize animals subjected to glycerol-induced rhabdomyolysis, as previously described. Parvez, et al., Invest. Radiol., 24:698-702 (1989); Duan, et al., Acta Radiologica, 41:503-507(2000). Sprague-Dawley rats with body weight of 300-400 g will be dehydrated for 24 hours followed by intramuscular (i.m.) injection of 25% glycerol solution (v/v) at the dose of 10 mL/kg. Twenty-four hours later, the animals will be administered a contrast dye with peptide conjugates, aromatic-cationic peptides, SPN10(s) with or without aromatic-cationic peptides, or control vehicle according to the following: 1) 25% glycerin+Saline+PBS (n=6), 2) 25% glycerin+diatrizoate+PBS (n=7), 3) 25% glycerin+diatrizoate+peptide conjugates (n=7), 4) 25% glycerin+diatrizoate+aromatic-cationic peptides (n=7), 5) 25% glycerin+diatrizoate+SPN10(s), and 6) 25% glycerin+diatrizoate+SPN10(s)+aromatic-cationic peptides. […] Samples will be analyzed by students t-test and differences will be considered significant at p<0.05.
Renal function: Renal function will be assessed by determining serum and urinary creatinine at baseline, 24 hours after dehydration, and 48 hours following contrast dye administration. Creatinine clearance will be calculated based on serum and urinary creatinine levels and urinary volume. Urinary albumin concentration will be determined using a competition ELISA assay.

[3] = tested on: subjects at risk for developing hyperalgesia; test: Prevention of neuropathy or hyperalgesia in at-risk humans; assay type: in vivo, human; conditions: s.c., once daily
From the text: Subjects at risk for developing hyperalgesia will be recruited as they present in clinic for the treatment of conditions associated with the development of peripheral neuropathy or hyperalgesia. Independent studies will address neuropathy and hyperalgesia resulting from, caused by, or otherwise associated with genetic disorders, metabolic/endocrine complications, inflammatory diseases, vitamin deficiencies, malignant diseases, and toxicity, such as alcohol, organic metal, heavy metal, radiation, and drug toxicity. Subjects will be selected such that they are at risk for developing a single type of neuropathy or hyperalgesia, having no risk factors outside the scope of the study in which the subject is enrolled, and as yet not having symptoms associated with neuropathy or hyperalgesia. Subjects will be screened for their willingness to enroll in the study, and informed consent will be obtained. […]
After a focused interview about the medical history, baseline measurements of touch and sharpness detection thresholds, grooved pegboard tests, and thermal detection thresholds will be determined according to the methods described above, with statistical analysis as described above. […]
Subjects will be evaluated weekly during the trial for sharpness detection thresholds, grooved pegboard tests, and thermal detection thresholds. […]

N=C(N)NCCC[C@H](NC(=O)[C@@H](N)Cc1c[nH]c2ccccc12)C(=O)N[C@@H](Cc1c[nH]c2ccccc12)C(=O)N[C@@H](CCCCN)C(N)=O [SPN10, H-L-Trp-L-Arg-L-Trp-L-Lys-NH2] (H-WRWK-NH2)
CD36 mRNA in the ipsilateral brain [1]: significantly reduced | albuminuria after contrast dye [2]: attenuate or prevent albuminuria | creatinine clearance after contrast dye [2]: attenuate or prevent reduced creatinine clearance | loss of proximal tubule brush border, glomerular swelling and tubular protein cast deposition (PAS) [2]: attenuate or prevent these effects | development of neuropathy or hyperalgesia [3]: attenuated
